Data on 19 compounds can be found in patent US8431563B2 (priority 2010, dated 2013).

Each structure is given as a SMILES string. Like-named read-outs stand apart in the source and are kept apart here.

Assay [1] deals with T1, GKRP (Glucokinase Regulatory Protein) with human His-hepatic GK (Homo sapiens, UniProt Q14397).
T1 sequence (Q14397 1-625): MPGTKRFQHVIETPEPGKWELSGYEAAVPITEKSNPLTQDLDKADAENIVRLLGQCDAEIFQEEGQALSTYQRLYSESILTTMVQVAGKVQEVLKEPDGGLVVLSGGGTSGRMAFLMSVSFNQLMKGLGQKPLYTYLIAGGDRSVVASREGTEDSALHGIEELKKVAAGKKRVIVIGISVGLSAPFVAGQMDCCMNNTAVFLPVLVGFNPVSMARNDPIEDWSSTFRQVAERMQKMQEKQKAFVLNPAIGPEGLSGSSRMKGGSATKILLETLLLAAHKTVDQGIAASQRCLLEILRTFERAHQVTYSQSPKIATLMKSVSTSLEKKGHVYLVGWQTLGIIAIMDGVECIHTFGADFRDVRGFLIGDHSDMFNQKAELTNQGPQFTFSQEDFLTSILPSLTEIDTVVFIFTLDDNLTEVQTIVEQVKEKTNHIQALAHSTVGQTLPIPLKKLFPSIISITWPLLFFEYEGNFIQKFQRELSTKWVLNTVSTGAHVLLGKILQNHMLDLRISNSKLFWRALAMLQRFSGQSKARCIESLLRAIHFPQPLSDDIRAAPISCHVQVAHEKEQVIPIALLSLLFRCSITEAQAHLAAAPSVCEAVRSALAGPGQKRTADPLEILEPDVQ
In words: biochemical. The procedure: GKRP LC MS/MS-2 Biochemical Assay
This assay is used to directly measure the formation of ^13C-glucose-6-phosphate from ^13C-glucose by LC MS/MS. Begin by preparing the following solutions: Compound Buffer (CB): 50 mM Tris, pH 7.5/4 mM MgCl2/6% DMSO/fresh 10 mM DTT from 1M frozen stock. Enzyme Buffer (EB): 50 mM Tris, pH 7.5/4 mM MgCl2/6% DMSO/fresh 0.1% BSA/fresh 0.01% Brij-35 (10% BSA and 1% Brij-35 stock). GK (Glucokinase) Working Stock (5×): Dilute human His-hepatic GK to 30 nM in EB buffer. […] After 30 minutes add 10 μl of GK Working Stock (5×). Re-seal the plate and incubate for another 30 minutes at room temperature while mixing. After the second 30 minutes, stop the reaction by the addition of 50 μl of 100% acetonitrile, seal, and mix for 5-10 minutes. Run 10 μl of this sample through the LC MS/MS (API 3200, Applied Biosystems, Carlsbad, Calif.).

For assay [2], the target named is T2, interaction between glucokinase (GK) and glucokinase regulatory protein (GKRP) (Homo sapiens, UniProt Q14397).
T2 sequence (Q14397 1-625): T1 sequence (Q14397 1-625)
As to the kind of experiment: biochemical. The assay is classed as binding. The procedure: GK-GKRP Binding Assay Protocol
This assay is used to directly measure the interaction between glucokinase (GK) and glucokinase regulatory protein (GKRP). Begin by preparing the following solutions. Assay Buffer: 20 mM Tris, pH 7.5/0.05% BSA/1 mM DTT/1 μM sorbitol-6-phosphate. […] Combine the following reagents in a white 96-well half area plate. Pipette 14 μl of the diluted avi-tagged GKRP into each well. Add 1 μl of compound to be tested and incubate at room temperature for 20 minutes. After 20 minutes, add 5 μl of assay buffer containing 6 nM GK-fluorescein. […] Incubate in a dark room for 2 hours at room temperature. After 2 hours read the plate using an Envision plate reader (Perkin Elmer, Waltham Mass.).

The mark [3] stands for this setting: 13C-glucose-6-phosphate formation, 280 nM GKRP (10×), 30 nM GK (5×), read-out: GK-GKRP EC50 (LC MS/MS-2).
[4] abbreviates: avi-tagged GKRP, GK-fluorescein, AlphaScreen beads, read-out: GK-GKRP IC50 (Binding).
Where [5] appears, read: GK-GKRP EC50 (LC MS/MS-2), 13C-glucose-6-phosphate formation, 280 nM GKRP (10×), 30 nM GK (5×).

For orientation: IC50 means the midpoint of a concentration-inhibition curve. For the compound `CC(O)(c1cnc(N2CCN(S(=O)(=O)c3ccc(N)s3)C[C@@H]2CC2CCOCC2)nc1)C(F)(F)F` (mixture of isomers) [Example 135, 2-(2-((2S)-4-((5-amino-2-thiophenyl)sulfonyl)-2-(tetrahydro-2H-pyran-4-ylmethyl)-1-piperazinyl)-5-pyrimidinyl)-1,1,1-trifluoro-2-propanol], in assay [1] (setting [3]), the EC50 amounted to 108 nM. Also, the IC50 in assay [2] (setting [4]) was determined as 55 nM.

`Nc1ccc(S(=O)(=O)N2CCN(c3ncc(C(O)(C(F)(F)F)C(F)(F)F)cn3)[C@@H](CN3C4COCC3CC(=O)C4)C2)s1` [Example 98 nonan-7-one, 9-(((2S)-4-((5-amino-2-thiophenyl)sulfonyl)-1-(5-(2,2,2-trifluoro-1-hydroxy-1-(trifluoromethyl)ethyl)-2-pyrimidinyl)-2-piperazinyl)methyl)-3-oxa-9-azabicyclo[3.3.1]nonan-7-one] came in with an EC50 in assay [1] (setting [5]) of 40 nM. For the same compound, the IC50 in assay [2] (GK-GKRP IC50 (Binding), avi-tagged GKRP, GK-fluorescein, AlphaScreen beads) amounted to 16 nM.

As for `C[C@H]1C(=O)NCCN1C[C@H]1CN(S(=O)(=O)c2cccs2)CCN1c1ccc(C(C)(O)C(F)(F)F)cc1` (mixture of isomers) [Example 182, (3S)-3-methyl-4-(((2S)-4-(2-thiophenylsulfonyl)-1-(4-(2,2,2-trifluoro-1-hydroxy-1-methylethyl)phenyl)-2-piperazinyl)methyl)-2-piperazinone], the EC50 in assay [1] (setting [3]) turned out to be 69 nM. For the same compound, the IC50 in assay [2] (setting [4]) is 46 nM.

Regarding `CC(C)CS(=O)(=O)N(C[C@H]1CN(S(=O)(=O)c2cccs2)CCN1c1ccc(C(C)(O)C(F)(F)F)cc1)c1ccccc1` (mixture of isomers) [Example 211, 2-methyl-N-phenyl-N-(((2R)-4-(2-thiophenylsulfonyl)-1-(4-(2,2,2-trifluoro-1-hydroxy-1-methylethyl)phenyl)-2-piperazinyl)methyl)-1-propanesulfonamide], the EC50 in assay [1] (setting [3]) was found to be 20 nM. Also, the IC50 in assay [2] (setting [4]) worked out at 6 nM.

As for `CC(O)(c1cnc(N2CCN(S(=O)(=O)c3ccc(N)nc3)C[C@@H]2CC2CCOCC2)nc1)C(F)(F)F` (mixture of isomers) [Example 131], in assay [1] (setting [3]), the EC50 is 102 nM. Further, in assay [2] (setting [4]), the IC50 stood at 124 nM.

With `Cn1cnc(COC[C@H]2CN(S(=O)(=O)c3cccs3)CCN2c2ccc(C(C)(O)C(F)(F)F)cc2)c1` (mixture of isomers) [Example 119, 1,1,1-trifluoro-2-(4-((2R)-2-(((1-methyl-1H-imidazol-4-yl)methoxy)methyl)-4-(2-thiophenylsulfonyl)-1-piperazinyl)phenyl)-2-propanol], in assay [1] (setting [3]), the EC50 is 169 nM. For the same compound, the half-inhibitory concentration (IC50) in assay [2] (setting [4]) was determined as 392 nM.

Consider `CC(O)(c1ccc(N2CCN(S(=O)(=O)c3cccs3)C[C@@H]2CN2C3COCC2C(O)C3)cc1)C(F)(F)F` (single isomer, unassigned; peak #4) [Example 77 Peak #4], for which the EC50 in assay [1] (setting [3]) came out at 65 nM. For the same compound, the IC50 in assay [2] (setting [4]) was 42 nM.

For the compound `CC(C)CN(C[C@H]1CN(S(=O)(=O)c2cccs2)CCN1c1ccc(C(C)(O)C(F)(F)F)cc1)S(=O)(=O)N(C)C` (mixture of isomers) [Example 215, N,N-dimethyl-N′-(2-methylpropyl)-N′-(((2R)-4-(2-thiophenylsulfonyl)-1-(4-(2,2,2-trifluoro-1-hydroxy-1-methylethyl)phenyl)-2-piperazinyl)methyl)sulfamide], the EC50 in assay [1] (setting [3]) was determined as 70 nM. Besides, the IC50 in assay [2] (setting [4]) came out at 70 nM.

As for `CC(O)(c1ccc(N2CCN(S(=O)(=O)c3cccs3)C[C@@H]2CNC2CCOCC2)cc1)C(F)(F)F` (mixture of isomers) [Example 120, 1,1,1-trifluoro-2-(4-((2S)-2-((tetrahydro-2H-pyran-4-ylamino)methyl)-4-(2-thiophenylsulfonyl)-1-piperazinyl)phenyl)-2-propanol], in assay [1] (setting [5]), the EC50 came to 656 nM. The IC50 in assay [2] (setting [4]) was 493 nM.

As to `CC(O)(c1ccc(N2CCN(S(=O)(=O)c3cccs3)C[C@@H]2CN2CCOC[C@@H]2CO)cc1)C(F)(F)F` (single isomer, unassigned) [Example 111 Peak #2], the EC50 in assay [1] (read-out: GK-GKRP EC50 (LC MS/MS-2)) was found to be 113 nM. For the same compound, in assay [2] (read-out: GK-GKRP IC50 (Binding)), the IC50 was 67 nM.

Consider `CCC(C#Cc1cc(C(O)(C(F)(F)F)C(F)(F)F)ccc1N1CCC(S(=O)(=O)c2ccccc2)CC1)OC` (racemic) [Example 163, 1,1,1,3,3,3-hexafluoro-2-(3-(3-methoxypent-1-ynyl)-4-(4-(phenylsulfonyl)piperidin-1-yl)phenyl)-2-propanol], for which the EC50 in assay [1] (setting [3]) was determined as 807 nM. In assay [2] (setting [4]), the IC50 is 602 nM.

For the compound `Nc1ccc(S(=O)(=O)N2CCN(c3ccc(C(O)(C(F)(F)F)C(F)(F)F)cc3)[C@@H](CC3CCOCC3)C2)cn1` [Example 126, 2-(4-((2S)-4-((6-amino-3-pyridinyl)sulfonyl)-2-(tetrahydro-2H-pyran-4-ylmethyl)-1-piperazinyl)phenyl)-1,1,1,3,3,3-hexafluoro-2-propanol], in assay [1] (setting [3]), the EC50 came to 37 nM. In assay [2] (setting [4]), the IC50 is 22 nM.

Take `CC(=O)N(C[C@H]1CN(S(=O)(=O)c2cccs2)CCN1c1ccc(C(C)(O)C(F)(F)F)cc1)C(C)C` (mixture of isomers) [Example 196, N-(1-methylethyl)-N-(((2S)-4-(2-thiophenylsulfonyl)-1-(4-(2,2,2-trifluoro-1-hydroxy-1-methylethyl)phenyl)-2-piperazinyl)methyl)acetamide]: in assay [1] (setting [3]), the EC50 was 391 nM. Further, the IC50 in assay [2] (setting [4]) turned out to be 466 nM.

With `Cn1cnc(COC[C@H]2CN(S(=O)(=O)c3cccs3)CCN2c2ccc(C(C)(O)C(F)(F)F)cc2)c1` (single isomer, unassigned) [Example 119 Peak #2], the EC50 in assay [1] (setting [3]) came to 206 nM. Besides, in assay [2] (setting [4]), the IC50 is 979 nM.

On to `CCC1COCCN1C[C@H]1CN(S(=O)(=O)c2cccs2)CCN1c1ccc(C(C)(O)C(F)(F)F)cc1` (mixture of isomers) [Example 143, 2-(4-((2S)-2-((3-ethyl-4-morpholinyl)methyl)-4-(2-thiophenylsulfonyl)-1-piperazinyl)phenyl)-1,1,1-trifluoro-2-propanol], for which, in assay [1] (setting [3]), the EC50 turned out to be 36 nM. Also, in assay [2] (setting [4]), the IC50 turned out to be 80 nM.

On to `CC(O)(c1ccc(N2CCN(S(=O)(=O)c3cccs3)C[C@@H]2CN2C3COCC2C(O)C3)cc1)C(F)(F)F` (single isomer, unassigned) [Example 78 Peak #1], for which the EC50 in assay [1] (setting [3]) turned out to be 146 nM. For the same compound, the IC50 in assay [2] (setting [4]) turned out to be 44 nM.

Compound `CC(O)(c1ccc(N2CCN(S(=O)(=O)c3cccs3)C[C@@H]2CN2C[C@H]3COC[C@H]3C2)cc1)C(F)(F)F` (stereo partly drawn) [Example 123, 1,1,1-trifluoro-2-(4-((2S)-2-((3aR,6aS)-tetrahydro-1H-furo[3,4-c]pyrrol-5(3H)-ylmethyl)-4-(2-thiophenylsulfonyl)-1-piperazinyl)phenyl)-2-propanol] registered an EC50 in assay [1] (GK-GKRP EC50 (LC MS/MS-2)) of 731 nM. In assay [2] (GK-GKRP IC50 (Binding)), this compound had an IC50 of 671 nM.

In turn, `CC(C)N(C[C@H]1CN(S(=O)(=O)c2cccs2)CCN1c1ccc(C(C)(O)C(F)(F)F)cc1)C(C)C` (mixture of isomers) [Example 194, 2-(4-((2S)-2-((bis(1-methylethyl)amino)methyl)-4-(2-thiophenylsulfonyl)-1-piperazinyl)phenyl)-1,1,1-trifluoro-2-propanol] registered an EC50 in assay [1] (setting [5]) of 179 nM. Moreover, the IC50 in assay [2] (setting [4]) is 205 nM.

For the compound `C[C@H]1COCCN1C[C@H]1CN(S(=O)(=O)c2ccc(N)nc2)CCN1c1ccc([C@@](C)(O)C(F)(F)F)cc1` (single isomer, unassigned) [Example 125 Peak #1], the EC50 in assay [1] (setting [3]) came out at 26 nM. Besides, in assay [2] (setting [4]), the concentration for half-maximal inhibition (IC50) amounted to 4 nM.
